A short description of assay [1]: viability reduction in hepatoma cells – cell-based, ATP luminescence, dry powder, Set4, cytotoxicity control, dose response (AID 743143). It counts as functional. As to conditions: HepG2.
For assay [2], the target named is NAD-dependent protein deacylase sirtuin-5, mitochondrial (Homo sapiens, UniProt Q9NXA8). Kind of assay: sirtuin-5 deacylation blockers, concentration series – biochemical, fluorescence imaging, cherry-pick, set 5, dose response (AID 720591).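 Note: desuccinylation of succinyl peptide AMC substrate read as fluorescence after trypsin release; potency of inhibitors that lower fluorescence and may act on trypsin instead.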
NAD-dependent protein deacylase sirtuin-5, mitochondrial, sequence (Q9NXA8 whole entry): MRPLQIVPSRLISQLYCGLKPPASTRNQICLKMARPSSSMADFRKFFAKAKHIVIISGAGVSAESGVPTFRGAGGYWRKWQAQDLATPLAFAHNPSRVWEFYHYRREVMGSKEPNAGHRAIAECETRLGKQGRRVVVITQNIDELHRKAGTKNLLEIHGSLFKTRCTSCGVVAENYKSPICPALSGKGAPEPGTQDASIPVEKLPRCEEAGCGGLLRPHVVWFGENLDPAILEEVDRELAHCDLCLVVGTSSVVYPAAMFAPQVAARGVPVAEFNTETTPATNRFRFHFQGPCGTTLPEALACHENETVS
The nature of assay [3]: viability loss in human Jurkat cells – cell-based, luminescence, cytotoxicity control for P. falciparum gametocyte viability project, dose response (AID 1117277).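 Note: potency reflects loss of cellular ATP meaning fewer viable cells.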 It counts as functional.
The nature of assay [4]: viability inhibitors of stage V gametocytes – luminescence, dose response (AID 1117278).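 Note: gametocytes exposed to compound for 24 hours.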 It counts as functional, cell-based.
A short description of assay [5]: Luminescence-based cell-based high throughput dose response assay to identify activators of the DAF-12 from the parasite S. stercoralis (ssDAF-12). The class given is functional.
The next assay deals with Cytochrome P450 3A4 (Homo sapiens, UniProt P08684).
Cytochrome P450 3A4, sequence (P08684 whole entry): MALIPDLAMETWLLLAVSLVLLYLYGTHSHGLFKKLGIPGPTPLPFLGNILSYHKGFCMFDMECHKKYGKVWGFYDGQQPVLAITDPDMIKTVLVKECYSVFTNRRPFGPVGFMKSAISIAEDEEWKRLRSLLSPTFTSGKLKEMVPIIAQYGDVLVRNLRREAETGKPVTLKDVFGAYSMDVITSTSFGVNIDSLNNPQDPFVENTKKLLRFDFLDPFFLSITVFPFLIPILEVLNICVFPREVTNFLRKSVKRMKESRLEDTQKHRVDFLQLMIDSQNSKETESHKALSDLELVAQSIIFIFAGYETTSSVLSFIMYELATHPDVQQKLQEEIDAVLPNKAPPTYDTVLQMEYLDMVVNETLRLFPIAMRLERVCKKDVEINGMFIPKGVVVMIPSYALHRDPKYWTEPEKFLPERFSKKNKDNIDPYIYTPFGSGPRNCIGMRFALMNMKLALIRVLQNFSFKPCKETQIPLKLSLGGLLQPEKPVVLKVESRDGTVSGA
In assay [6] the target is T1, Oxysterols receptor LXR-beta (Homo sapiens, UniProt P55055).
T1 sequence (P55055 whole entry): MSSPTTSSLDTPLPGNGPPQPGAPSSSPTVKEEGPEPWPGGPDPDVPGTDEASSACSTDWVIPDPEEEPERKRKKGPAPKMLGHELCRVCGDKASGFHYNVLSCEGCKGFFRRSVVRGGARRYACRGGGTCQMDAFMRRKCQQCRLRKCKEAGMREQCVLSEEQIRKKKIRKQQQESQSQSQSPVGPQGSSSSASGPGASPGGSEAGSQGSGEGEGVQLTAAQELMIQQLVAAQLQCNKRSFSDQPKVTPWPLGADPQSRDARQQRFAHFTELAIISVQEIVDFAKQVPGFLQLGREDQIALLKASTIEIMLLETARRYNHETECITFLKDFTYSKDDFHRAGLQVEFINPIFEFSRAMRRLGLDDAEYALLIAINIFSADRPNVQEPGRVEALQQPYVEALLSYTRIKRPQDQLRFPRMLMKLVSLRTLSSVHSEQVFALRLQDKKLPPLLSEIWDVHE
The assay is described as follows: LXR agonists, Gal4 luciferase reporter, dose response, counter-screen for ssDAF-12 agonist project, cell-based, luminescence, HEK293, S. stercoralis campaign (AID 720737). It counts as functional. The following applies: read-out: IC50 (the source's name).

Assay [7] addresses T1, Oxysterols receptor LXR-beta. It counts as functional, cell-based.
The target in the next assay is T2, Protein skinhead-1 (Caenorhabditis elegans, UniProt P34707).
T2 sequence (P34707 whole entry): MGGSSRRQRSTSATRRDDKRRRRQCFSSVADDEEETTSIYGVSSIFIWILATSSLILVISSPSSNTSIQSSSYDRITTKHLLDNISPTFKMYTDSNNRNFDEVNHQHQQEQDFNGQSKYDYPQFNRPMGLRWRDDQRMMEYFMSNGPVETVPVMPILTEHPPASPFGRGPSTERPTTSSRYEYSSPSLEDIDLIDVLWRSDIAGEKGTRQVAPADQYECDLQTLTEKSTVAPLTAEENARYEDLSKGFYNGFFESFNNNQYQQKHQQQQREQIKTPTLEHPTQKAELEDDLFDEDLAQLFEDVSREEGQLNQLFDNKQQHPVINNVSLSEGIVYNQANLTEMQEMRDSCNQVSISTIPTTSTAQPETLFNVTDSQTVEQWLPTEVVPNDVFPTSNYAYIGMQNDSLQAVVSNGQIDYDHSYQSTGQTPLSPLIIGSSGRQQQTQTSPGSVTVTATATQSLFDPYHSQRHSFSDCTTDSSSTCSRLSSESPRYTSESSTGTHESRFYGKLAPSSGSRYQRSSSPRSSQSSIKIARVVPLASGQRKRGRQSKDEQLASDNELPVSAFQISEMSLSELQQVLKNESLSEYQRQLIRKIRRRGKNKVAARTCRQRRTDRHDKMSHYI
It counts as functional.

Assay [8] can be described thus: inhibitors of non-replicating M. tuberculosis, dose response, luciferase, dry powder (AID 651619). It counts as functional. As to conditions: Mycobacterium tuberculosis.
Assay [9] is described as follows: inhibitors of non-replicating M. tuberculosis, dose response, luciferase, dry powder (AID 651620). It counts as functional. The following applies: Mycobacterium tuberculosis.
The nature of assay [10]: rise of 2N DNA cells, HeLa – IC50, dose response (AID 1117349). It counts as functional, cell-based.
The nature of assay [11]: rise of 4N DNA cells, HeLa – IC50, dose response (AID 1117351). It counts as functional, cell-based.
The nature of assay [12]: cytotoxicity toward HT-29 cells – cell-based, CellTiter-Glo luminescence, IC50, dose response (AID 1117330). It counts as functional.
Assay [13] is described as follows: CellTiter-Glo luminescence survival assay, SW480 colon tumor line, concentration-response curve, half-maximal inhibitory concentration (AID 1117338). The class given is functional.
A short description of assay [14]: RKO cell viability reduction, dose response, CellTiter-Glo luminescence (AID 1117322). The class given is functional.
Assay [15] in a line: SNU-C1 cell viability reduction, dose response, CellTiter-Glo luminescence (AID 1117323). The class given is functional, cell-based.
Assay [16] in a line: cytotoxicity toward HCT116 cells – cell-based, CellTiter-Glo luminescence, IC50, dose response (AID 1117332). The class given is functional. As to conditions: HCT-116.
Assay [17] in a line: cytotoxicity toward Colo320 cells – cell-based, CellTiter-Glo luminescence, IC50, dose response (AID 1117334). It counts as functional. The following applies: COLO 320.
Assay [18] in a line: Reduced DLD-1 viability, concentration-response, CellTiter-Glo luminescence (AID 1117352). The class given is functional.
Assay [19] in a line: HCT116 cell viability decrease, GSK3B pretreatment – CellTiter-Glo, IC50, dose response (AID 1117339). It counts as functional. As to conditions: HCT-116.
A short description of assay [20]: P. falciparum Dd2 growth inhibitors, dose response, SYBR Green, cherry-picked samples (AID 1159567). The class given is functional, cell-based.
Assay [21] in a line: toxicity to human hepatoma HepG2 cells – cell-based, cherry-picked samples, cytotoxicity control, dose response (AID 1159577). The class given is functional.

Consider seven molecules from ChEMBL document CHEMBL1201862, “PubChem BioAssay data set” (2004).

Activity calls are given as the source filed them.

For `O=C(CCCNC(=O)c1ccc(Cl)c(Cl)c1)N[C@@H]1CCCc2ccccc21`, the AC50 in assay [1] is > 52 µM (inactive).
For `Cc1ccc(C(=O)COC(=O)CN2C(=O)C3C4CC(C(Br)C4Br)C3C2=O)cc1` (centres undefined), in assay [2], the AC50 is > 30 µM (inactive).
As for `CC(=O)c1c(C)[nH]c(C(=O)COC(=O)C2CC2)c1C`, the IC50 in assay [3] is > 83.2 µM (inactive); in assay [4] it was > 109 µM (inactive).
For `Fc1ccc(-c2cn3cc(C(F)(F)F)cc(Cl)c3n2)cc1`, the IC50 in [5] is > 67.5 µM (inactive); at Protein skinhead-1, > 100 µM (inactive). For the same molecule, the AC50 on Cytochrome P450 3A4 is 14.1 µM (inconclusive). Besides, the EC50 (in [6]; in assay [7]; in “cells”) was > 67.5 µM (inactive) each time.
Take `c1ccc(-c2nnc(SC3CCCCC3)o2)cc1`: the IC90 in assay [8] and in assay [9] was 2 µM (active) each time.
For the molecule `Cc1c(C)c2c(c(C)c1O)CCC(C)(COc1ccc(CC3SC(=O)NC3=O)cc1)O2` (centres undefined) [TROGLITAZONE], the IC50 in [10] was > 10 µM (inactive); in [11], > 10 µM (inactive); in [12] it was > 20 µM (inactive); in [13] it was 5.59 µM (inactive); in assay [14] it was 7.76 µM (inactive); in assay [15], > 20 µM (inactive). The half-maximal inhibitory concentration (IC50) was 1.4 µM (active) in assay [16], 9.49 µM (inactive) in assay [17], 12.3 µM (inactive) in [18] and 1.3 µM (active) in assay [19].
Turning to `Cc1ccccc1S(=O)(=O)N1CC(=O)N2[C@H](C1)[C@@H](c1ccc(C#CCC3CCCC3)cc1)[C@@H]2CO`, the half-maximal activity concentration (AC50) in [20] is 3.64 µM (active); in [21] it was > 42 µM (inactive).
